Read-outs that look alike come from different tables or passages of the source.
Experiments:
Assay type in all cases: cell-based
Vpu = target: T1, Vpu (Human immunodeficiency virus type 1 group M subtype B, UniProt P05919); assay: Bacterial bioassay, Vpu; settings: mean bacterial bioassay score; Vpu of HIV
T1 construct: expressed in transfected cells
Source text: (§1) The bacterial bioassay method used in the present example to test the anti-viral activity of the compounds against different viral targets was described in detail in PCT/2004/000866, incorporated in its entirety herein by reference. Vpu, p7 and M referred to in the table are small membrane proteins encoded by HIV, HCV and Dengue viruses, respectively, which have functional activities supporting viral growth and/or replication.

HCV p7 = target: T2, HCV p7 (Hepatitis C virus genotype 1a, UniProt P27958); assay: Bacterial bioassay, HCV p7; design: scale not given here; settings: mean bacterial bioassay score; p7 of HCV
T2 construct: expressed in transfected cells
Source text: as §1

Den M = target: T3, Den M (Dengue virus type 1, UniProt P33478); assay: Bacterial bioassay, Den M; design: scale not given here; settings: mean bacterial bioassay score; M protein of Dengue virus
T3 construct: expressed in transfected cells
Source text: as §1

HIV-1 strain Ba-L = assay: HIV-1 Ba-L growth inhibition in primary macrophages (p24 ELISA); settings: for IC50: Human immunodeficiency virus 1, BAL, Primary macrophage; for AI (Antiviral Index): calculated by formula from TC50 and IC50, HIV-1Ba-L in primary macrophages
Protocol: The inhibition specifically of HIV-1 growth by the compounds of the invention was tested in primary macrophages in vitro using a method similar to that used to assess antibody neutralization (VanCott T C et al (1999)). In the present case, the laboratory adapted HIV-1 strain Ba-L was used, which is known to infect macrophages.
Peripheral Blood Mononuclear Cells (PBMC) were prepared from healthy donors using buffy-coat packs obtained from the Australian Red Cross Blood Service (ARCBS). Blood was received the day following donation, and had been depleted of serum and platelets, leaving a small volume (less than 100 mL) of concentrated leukocytes.
Leukocytes were separated from blood cells and granulocytes by density gradient centrifugation (Ficoll Paque) and washed extensively in PBS^− (without Ca/Mg) to remove platelets. Recovered cells were allowed to adhere to plastic tissue culture flasks (Becton Dickinson) for 2 hr, 37° C., 5% CO2, in media (DMEM (high)/10% AB serum/50 ug/mL gentamicin/2 mM L-glutamine) during which time the myeloid cells formed an adherent monolayer leaving lymphocytes unattached.
Non-adherent lymphocytes were removed by washing with warm PBS^+ (with Ca/Mg) and were generally discarded. In some cases those cells were recovered and frozen in media/10% DMSO for use in viral stock infections. The adherent monocytes were recovered by scraping gently with a plastic cell scraper. The myeloid cells were then plated into 96-well plates at a cell concentration of 1.5×10^6/mL, and allowed to fully differentiate over a period of 14 days.
Macrophages were allowed to differentiate over a 14 day period, with media changes as required. On day 14, cells were infected in the presence of decreasing concentrations of BIT compounds over a range 0-10 μM. Samples of 25 μL culture supernatants were removed from each well on day 7 and fresh media plus compound dilution was added.
After 7 days the samples with and without compound were analysed to assess the level of virus present in the wells, using a p24 ELISA (Innotest). Virus levels in samples were converted to “percentage of control virus growth” values based on the controls (containing no compound). From that dose response curve (example FIG. 1) the IC50 was calculated and used as a measure of compound anti-HIV activity.

[1] = Cytotoxicity to cells in the viral inhibition assay (MTT assay); settings: human, primary human macrophages, read-out: TC50 (the source's name)
Protocol: The toxicity of test compounds to cells in the viral inhibition assay was determined using the MTT assay (Pauwels R, et al. (1988); D'Cruz O J et al. (1999); Joo H. (2003)). This method utilises Thiazolyl Blue (MTT), which is added to the cell culture (100 ug/well), and incubated for 4-5 hours whilst the live, metabolically active cells convert the chemical to its purple coloured metabolite, which forms intracellular crystals. The purple colour is measured colourimetrically (570-590 nm) once cells have been permeabilised using acidified isopropanol containing 10% triton X-100. The most intense colour development occurs in wells where the metabolising cells are most numerous. […] Those values were estimated manually from the Percentage Viability vs Concentration dose response curves (FIG. 1). The compound toxicity to cells in culture was taken into account in inhibition experiments and in separate experiments involving increased concentrations of compound. TC50 values were estimated in separate experiments (not shown) where concentrations of compound were greater.

[2] = 168 h, against HIV-1Ba-L in primary macrophages, p24 ELISA after 7 days, estimated from dose response curves (FIG. 1), 0-10 μM, read-out: IC50
[3] = 50% cell viability, MTT assay, estimated in separate experiments at greater compound concentrations
[4] = additional compounds, same assay system (HIV-1Ba-L, primary macrophages), estimated from dose response curves, read-out: Estimated IC50
[5] = additional compounds, same assay system, MTT

T1 sequence (P05919 whole entry): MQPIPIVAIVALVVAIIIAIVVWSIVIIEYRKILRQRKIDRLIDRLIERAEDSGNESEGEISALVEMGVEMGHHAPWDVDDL
T3 sequence (P33478 206-280): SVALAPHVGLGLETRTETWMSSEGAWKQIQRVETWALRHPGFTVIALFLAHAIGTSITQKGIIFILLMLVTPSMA
T2 sequence (P27958 747-809): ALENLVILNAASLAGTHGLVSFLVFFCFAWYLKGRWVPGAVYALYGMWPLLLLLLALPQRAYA

Compound	Average Bacterial Assay Score, Vpu (Vpu)	Average Bacterial Assay Score, HCV p7 (HCV p7)	Average Bacterial Assay Score, Den M (Den M)	IC50 (HIV-1 strain Ba-L; [2]) [µM]	AI (Antiviral Index) (HIV-1 strain Ba-L)	CC50 [1, 3] [µM]	IC50 (HIV-1 strain Ba-L; [4]) [µM]	CC50 [1, 5] [µM]
N=C(N)NC(=O)C=Cc1cccc(Br)c1 [BIT067, (3-Bromocinnamoyl)guanidine, reference compound]	2.88	–	–	–	–	–	–	–
N=C(N)NC(=O)C=Cc1cc(Br)ccc1F [BIT124, 5-bromo-2-fluorocinnamoylguanidine, reference compound]	–	2.25	–	–	–	–	–	–
N=C(N)NC(=O)C=CC=Cc1ccccc1Br [BIT128, 5-(2′-bromophenyl)penta-2,4-dienoylguanidine, reference compound]	–	–	2.87	–	–	–	–	–
N=C(N)NC(=O)/C=C/c1cccc(C(=O)c2ccccc2)c1 [BIT216, (3-benzoyl)cinnamoylguanidine]	1.3	1.3	1.5	0.9	28-550	25 to 495	–	–
N=C(N)NC(=O)/C=C/c1cccc2c1OCO2 [BIT217, 2,3-methylenedioxycinnamoyl guanidine]	1.8	1.0	–	1.1	>91	> 100	–	–
Cc1cccc2cc(C(=O)NC(=N)N)ccc12 [BIT218, 5-methyl-2-napthoylguanidine]	1.8	1.7	1.3	1.56	>192	> 300	–	–
N=C(N)NC(=O)/C=C/c1cccc2c1CCC2 [BIT222, 3(indan-4-yl)-propenoylguanidine]	1.2	2.0	2.2	> 10	>10	> 100	–	–
COc1ccc2cc(C(=O)NC(=N)N)ccc2c1Br [BIT223, 5-bromo-6-methoxy-2-napthoylguanidine]	0	0.0	–	0.3	>1000	> 300	–	–
N=C(N)NC(=O)c1ccc2c(-c3ccsc3)cccc2c1 [BIT224, 5-thiophen-3-yl-2-naphthoylguanidine]	2.2	1.1	1.3	1	>100	> 200	–	–
Cn1cc(-c2cccc3cc(C(=O)NC(=N)N)ccc23)cn1 [BIT225, 5-(1-methylpyrazol-4-yl)2-naphthoylguanidine]	1.4	1.2	0.9	2.5	>80	> 200	–	–
N=C(N)NC(=O)C=Cc1ccc(Cl)c(Cl)c1 [BIT300, 3,4-dichlorocinnamoyl guanidine]	1.52	0.67	3.40	–	–	–	–	–
COc1c(C(=O)NC(=N)N)ccc2ccccc12 [BIT301, (1-methoxy-2-napthoyl)guanidine]	1.54	0.25	0.50	–	–	–	< 2.5	> 50
COc1cc2ccccc2cc1C(=O)NC(=N)N [BIT302, (3-methoxy-2-napthoyl)guanidine]	1.04	0.42	0.50	–	–	–	< 2.5	> 50
N=C(N)NC(=O)c1ccc2c(Br)cccc2c1 [BIT303, (5-bromo-2-napthoyl)guanidine]	0.22	0.00	2.10	–	–	–	< 2.5	10 to 50
COc1cc(C(=O)NC(=N)N)c(OC)c2ccccc12 [BIT304, (1,4-dimethoxy-2-napthoyl)guanidine]	0.62	0.33	1.90	–	–	–	< 10	10 to 50
CC(=O)O.Cn1cc(-c2ccc3cc(C(=O)NC(=N)N)ccc3c2)cn1 [BIT314, (6-(1-methylpryazol-4-yl)-2-napthoyl)guanidinium acetate]	0.00	3.30	1.60	–	–	–	–	–
COc1ccc(-c2cccc3cc(C(=O)NC(=N)N)ccc23)c(OC)n1 [BIT315, (5-(2,6-dimethoxypyridin-3-yl)-2-napthoyl)guanidine]	0.20	0.30	1.00	–	–	–	–	–
N=C(N)NC(=O)c1ccc2c(-c3ccccc3Cl)cccc2c1 [BIT316, (5-(2-chlorophenyl)-2-napthoyl)guanidine]	0.20	0.80	0.50	–	–	–	–	–
CC(=O)Nc1ccc(-c2cccc3cc(C(=O)NC(=N)N)ccc23)cc1 [BIT317, (5-(4-(acetylamino)phenyl)-2-napthoyl)guanidine]	0.00	0.20	0.40	–	–	–	–	–
CC(=O)Nc1cccc(-c2cccc3cc(C(=O)NC(=N)N)ccc23)c1 [BIT318, (5-(3-(acetylamino)phenyl)-2-napthoyl)guanidine]	2.00	0.30	0.35	–	–	–	–	–
CS(=O)(=O)Nc1ccc(-c2cccc3cc(C(=O)NC(=N)N)ccc23)cc1 [BIT319, (5-(4-((methylsulphonyl)amino)phenyl)-2-napthoyl)guanidine]	0.00	0.00	0.15	–	–	–	–	–
